Experimental data reported in patent publication US20230099822A1, “MR1 LIGANDS AND PHARMACEUTICAL COMPOSITIONS FOR IMMUNOMODULATION” (UNIVERSITÄT BASEL, priority 2020, published 2023).
Counter-ions that a name gives are not always drawn.

Experiments:
MR1T cell clones [1] = assay: MR1T cell activation assay with drug-treated THP-1 cells; format: cell-based, human; conditions: for stimulation of TC5A87 MR1T clone (IFN-γ): THP-1 cells incubated 18 h with drug (FIG. 7d, f, g); for T cell response in MR1T cell clones: THP-1 cells treated with drug; for reactivity of DGB129 clone to drug-treated THP-1 cells: drug alone, 25 μM EHNA, 10 μM MPA, 20 μM BBG (FIG. 9H)
Method: (§1) MR1T cells (5×10^4/well unless otherwise indicated) were co-cultured with the indicated APCs (10^5 cells per well unless otherwise indicated) for 18 h in 120 μL volume in triplicate. In some experiments, anti-MR1 mAbs (clone 26.5, purified and endotoxin-free mouse IgG2a, (Lepore et al., 2014)) or mouse IgG2a isotype control mAbs (LEAF, Biolegend, Cat #401504) (both at 30 μg/mL) were added and incubated for 30 min at 37° C. prior to the addition of T cells.
(§2) In experiments with mycophenolic acid (10 μM), EHNA (25 μM), S-p-bromobenzylglutathione cyclopentyl diester (BBG, 20 μM) (all from Sigma-Aldrich), THP-1 cells (1×10^6/mL) were treated with the indicated concentrations of drugs in complete medium at 37° C. for 18 h before being washed twice with PBS, counted and used for T-cell activation. In experiments where THP-1 cells (1×10^6/mL) were treated with doxorubicin (75 nM) and paclitaxel (5 μM) (both from Sigma-Aldrich), the cells were incubated at 37° C. for 18 h before being washed twice with PBS, counted, and incubated for 2 h with vehicle or 150 μM dAdo and 150 μM guanosine (Sigma-Aldrich) prior to T-cell addition. In experiments where fixed A375-MR1 cells were used to activate MR1T cells, APCs (4×10^5/mL) were treated with apocynin (APO, 100 μM), L-glutathione reduced (GSH, 4 mM), N-acetyl cysteine (NAC, 4 mM), L-buthionine-sulfoximine (BSO, 400 μM) mercaptosuccinic acid (MSA, 3.3 μM), ML-210 (6 μM) or 1S,3R-RSL3 (RSL3, 1 μM), hydralazine hydrochloride (100 μM) or aminoguanidine hemisulfate salt (5 mM) for 18 h at 37° C. before being washed twice with PBS, fixed with glutaraldehyde, counted and used for MR1T cell stimulation.
(§3) The following human cytokines were assessed by ELISA using specific mAbs: GM-CSF (purified clone BVD2-23B6 and biotinylated clone BVD2-21C11, Biolegend Cat #502202 and 502304, respectively), IFN-γ (purified clone MD-1 and biotinylated clone 4S.B3, Biolegend Cat #507502 and 502504, respectively), IL-13 (purified clone JES10-5A2 and biotinylated clone SB126d, SouthernBiotech Cat #10125-01 and 15930-08, respectively).

MR1T cell clones [2] = assay: Competition assay for stimulation of MR1T cell clones; format: cell-based, human; conditions: APCs with compound 2 h (3 doses), then antigen at optimal concentration, cytokine ELISA
Method: As positive control for competition with antigens, Ac-6-FP was used (100 μM). Supernatants were collected after 24 h for cytokine analysis measured by ELISA.

MR1T cell clones [3] = assay: MR1T cell activation assay with THP-1 cells incubated with compounds (cytokine ELISA); format: cell-based, human
Method: MR1T cells (5×10^4/well unless otherwise indicated) were co-cultured with the indicated APCs (10^5 cells per well unless otherwise indicated) for 18 h in 120 μL volume in triplicate.
When nucleobases, nucleosides or nucleotides (all 250 μM) and synthetic compounds M3ADE, OPdA, M1G or OPdC were used to stimulate T cells, the THP-1 cells (10^5/well) were cultured 2 h with the indicated molecules or medium only, prior to T-cell addition. When a single concentration of synthetic antigens was used, 100 μM OPdA, 100 μM OPdC and 13 μM M1G were used for all clones, while 100 μM M3ADE was used for all clones except DGB129, AC1A4, AC1B76 and AVA46 for which 1 μM was used.

[4] = biological target: T1, MR1 surface expression on THP-1 MR1 cells (Homo sapiens, UniProt Q95460); assay: Cell surface MR1 modulation on APCs (flow cytometry, anti-MR1 mAb 26.5); format: cell-based; conditions: THP-1 MR1 cells, 3 h at 37° C., 3 doses each
T1 construct: expressed in transfected cells; host or cells: THP-1 (ATCC TIB-202) stably expressing MR1 (THP1-MR1)
T1 sequence (Q95460 23-341): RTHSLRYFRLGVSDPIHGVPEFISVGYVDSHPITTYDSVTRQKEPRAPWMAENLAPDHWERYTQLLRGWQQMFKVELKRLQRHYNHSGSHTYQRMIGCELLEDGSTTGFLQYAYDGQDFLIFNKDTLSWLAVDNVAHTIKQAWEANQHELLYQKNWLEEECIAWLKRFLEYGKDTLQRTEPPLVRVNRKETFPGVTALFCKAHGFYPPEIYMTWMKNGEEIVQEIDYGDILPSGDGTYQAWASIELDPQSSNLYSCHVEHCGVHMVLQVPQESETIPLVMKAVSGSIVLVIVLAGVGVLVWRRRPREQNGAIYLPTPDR
T1 sequence (P61769 21-119 partner): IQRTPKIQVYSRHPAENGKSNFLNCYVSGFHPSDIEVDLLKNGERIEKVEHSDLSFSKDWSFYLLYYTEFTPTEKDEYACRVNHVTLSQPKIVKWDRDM
Method: […] […] For each condition, net MFI was calculated subtracting isotype MFI from anti-MR1 MFI and fold change of cells treated with synthetic molecules over cells treated with vehicle was calculated.

MR1T cell clones [5] = assay: MR1T cell activation assay with treated and fixed A375-MR1 cells; format: cell-based, human; conditions: 18 h treatment before fixation; concentrations (FIG. 10D-L)
Method: as §1, §2, §3

MAIT clone MRC25 = assay: Control stimulation of MAIT clone MRC25; format: cell-based, human; conditions: A375-MR1 cells treated with carbonyl scavengers (FIG. 16E)
Method: In some experiments, MAIT cells were stimulated by APCs pulsed 3 h with 5-OP-RU as previously described or with 30 μM 6,7-dimethyl-8-ribityllumazine (Cayman Chemical Cat #23370).

Row | SMILES | Competition (MR1T cell clones [2]) | MRI upregulation [4] | MR1T-cell stimulation (IFN-γ) by treated, fixed A375-MR1 cells (MR1T cell clones [5]) | further results
1 | CCCCCC[C@@H]([C@@H](C)O)n1cnc2c(N)ncnc21 (racemic) [EHNA, erythro-9-(2-hydroxy-3-nonyl) adenine] |  |  |  | stimulation of TC5A87 MR1T clone (IFN-γ) (MR1T cell clones [1]): induces the stimulation; T cell response in MR1T cell clones (MR1T cell clones [1]): induced a strong stimulation; reactivity of DGB129 clone to drug-treated THP-1 cells (MR1T cell clones [1]): reacted
2 | NC(CCC(=O)NC(CSCc1ccc(Br)cc1)C(=O)NCC(=O)OC1CCCC1)C(=O)OC1CCCC1 (stereo not drawn) [BBG, S-p-bromobenzylglutathione cyclopentyl diester] |  |  |  | IFN-γ release of both MR1T cell clones to THP-1 cells (MR1T cell clones [1]; BBG in combination with each of MPA and EHNA, clones TC5A87 and DGB129 (FIG. 9G, H)): significantly enhanced; reactivity of DGB129 clone to drug-treated THP-1 cells (MR1T cell clones [1]): reacted
3 | C[C@@H](O)[C@H](NC(=O)Nc1ncnc2c1ncn2[C@@H]1O[C@H](CO)[C@@H](O)[C@H]1O)C(=O)O [Cmpd 5, N6-threonylcarbamoyladenosine] | YES | YES |  | Reactive T cells isolated (MR1T cell clones [3]): YES
4 | CC(C)=CCNc1ncnc2c1ncn2[C@@H]1O[C@H](CO)C(O)C1O (stereo partly drawn) [Cmpd 6, N6-isopent-2-enyladenosine] | YES | YES |  | Reactive T cells isolated (MR1T cell clones [3]): YES
5 | C[C@@H](O)[C@H](NC(=O)N(C)c1ncnc2c1ncn2[C@@H]1O[C@H](CO)[C@@H](O)[C@H]1O)C(=O)O [Cmpd 10, N6-methyl-N6-threonylcarbamoyladenosine] | YES | YES |  | Reactive T cells isolated (MR1T cell clones [3]): YES
6 | CN(C)c1nc2c(ncn2[C@@H]2O[C@H](CO)[C@@H](O)[C@H]2O)c(=O)[nH]1 [Cmpd 19, N2,N2-dimethylguanosine] | YES | YES |  | Reactive T cells isolated (MR1T cell clones [3]): YES
7 | Cn1c(=O)ccn([C@@H]2O[C@H](CO)[C@@H](O)[C@H]2O)c1=O [Cmpd 30, 3-methyluridine] | YES | YES |  | Reactive T cells isolated (MR1T cell clones [3]): YES
8 | CO[C@@H]1[C@H](O)[C@@H](CO)O[C@H]1n1ccc(=O)n(C)c1=O [Cmpd 32, 3,2′-O-dimethyluridine] | YES | YES |  | 
9 | Nc1nc2c(c(CN[C@H]3C=C[C@H](O)[C@@H]3O)cn2[C@@H]2O[C@H](CO)[C@@H](O)[C@H]2O)c(=O)[nH]1 [Cmpd 33, Queuosine] | YES | YES |  | 
10 | COC(=O)N[C@@H](CCc1c(C)nc2n(C)c3c(ncn3[C@@H]3O[C@H](CO)[C@@H](O)[C@H]3O)c(=O)n12)C(=O)OC [Cmpd 34, Wybutosine] | YES | YES |  | 
11 | CNc1ncnc2c1ncn2[C@@H]1O[C@H](CO)[C@@H](O)[C@H]1O [Cmpd 42, N6-methyladenosine] | YES | YES |  | 
12 | Cc1ncnc2nc[nH]c12 [Cmpd 43, 6-Methylpurine] | YES |  |  | MRI downmodulation [4]: YES
13 | CN(C)c1ncnc2nc[nH]c12 [Cmpd 44, 6-(Dimethylamino)purine] | YES | YES |  | 
14 | CC(C)=CCNc1ncnc2[nH]cnc12 [Cmpd 45, N6-(Δ2-Isopent-2-enyl) adenine] | YES |  |  | MRI downmodulation [4]: YES
15 | O=c1c(-c2ccc(O)cc2)coc2cc(O[C@@H]3O[C@H](CO)[C@@H](O)[C@H](O)[C@H]3O)ccc12 [Daidzin] |  |  |  | response of MCA2B9 MR1T clone (IFN-γ) (MR1T cell clones [1]; THP-1 cells incubated 18 h with drug (FIG. 7a, b)): increase the response; T cell response in MR1T cell clones (MR1T cell clones [1]): induced a strong T cell response
16 | O=c1oc2c(O)c(O)cc3c(=O)oc4c(O)c(O)cc1c4c23 [Ellagic acid, ellagic acid] |  |  |  | stimulation of QY1A16 MR1T clone (IFN-γ) (MR1T cell clones [1]; THP-1 cells incubated 18 h with drug (FIG. 7e)): induces the stimulation; T cell response in MR1T cell clones (MR1T cell clones [1]): induced a strong T cell response
17 | N[C@@H](CCC(=O)N[C@@H](CS)C(=O)NCC(=O)O)C(=O)O [GSH, L-glutathione reduced] |  |  | significantly less IFN-γ production | 
18 | Cc1onc(C(=O)N2CCN(C(c3ccc(Cl)cc3)c3ccc(Cl)cc3)CC2)c1[N+](=O)[O-] [ML-210] |  |  | significantly increased MR1T-cell stimulatory activity | 
19 | COc1c(C)c2c(c(O)c1C/C=C(\C)CCC(=O)O)C(=O)OC2 [Mycophenolic acid] |  |  |  | stimulation of TC5A87 MR1T clone (IFN-γ) (MR1T cell clones [1]): induces the stimulation; T cell response in MR1T cell clones (MR1T cell clones [1]): induced a strong stimulation; reactivity of DGB129 clone to drug-treated THP-1 cells (MR1T cell clones [1]): reacted
20 | CC(=O)N[C@@H](CS)C(=O)O [N-acetylcysteine] |  |  | significantly less IFN-γ production | 
21 | CC1(C)CC[C@]2(C(=O)O)CC[C@]3(C)C(=CC[C@@H]4[C@@]5(C)CC[C@H](O)C(C)(C)[C@@H]5CC[C@]43C)[C@@H]2C1 [Oleanoic acid, oleanoic acid] |  |  |  | stimulation of TC5A87 MR1T clone (IFN-γ) (MR1T cell clones [1]): induces the stimulation; T cell response in MR1T cell clones (MR1T cell clones [1]): induced a strong T cell response
22 | COC(=O)c1ccc([C@H]2c3[nH]c4ccccc4c3C[C@H](C(=O)OC)N2C(=O)CCl)cc1 [RSL3, 1S,3R-RSL3] |  |  | significantly increased MR1T-cell stimulatory activity | 
23 | N=C(N)NN [aminoguanidine, aminoguanidine hemisulfate salt] |  |  | significant inhibition of IFN-γ production | MAIT cell activation (MAIT clone MRC25): no effect on MAIT cell activation
24 | COc1cc(C(C)=O)ccc1O [apocynin] |  |  | effective with one T-cell clone | 
25 | CCCCS(=N)(=O)CCC(N)C(=O)O (stereo not drawn) [buthionine sulfoximine] |  |  | significant increase | 
26 | NNc1nncc2ccccc12 [hydralazine, hydralazine hydrochloride] |  |  | significant inhibition of IFN-γ production | MAIT cell activation (MAIT clone MRC25): no effect on MAIT cell activation
27 | O=C(O)CC(S)C(=O)O (stereo not drawn) [mercaptosuccinic acid] |  |  | significantly increased MR1T-cell stimulatory activity | 
